Measured values as given in US9809623B2, “α4β7 peptide monomer and dimer antagonists” (Protagonist Therapeutics, Inc., priority 2014, dated 2017).
Numbered stars: 1 amine (or outer) side, 2 acyl side, 3 side chain; on linkers, the order of the positions; unused ones are H or OH. Bridge positions count the residues as written; N and C are the ends. Square brackets hold non-standard residues; d marks the D form. Peptide text beside a SMILES is read from it. I, II: the chains in the order shown. Phe(4-tBu) = CC(C)(C)c1ccc(C[C@H](N)C(=O)O)cc1; 2Nal = N[C@@H](Cc1ccc2ccccc2c1)C(=O)O; Diglycolyl = O=C(COCC(=O)[*:2])[*:1]; NMeR = CN[C@@H](CCCNC(=N)N)C(=O)O; Tic = O=C(O)[C@@H]1Cc2ccccc2CN1; β3hE = N[C@@H](CCC(=O)O)CC(=O)O; Pen = CC(C)(S)[C@H](N)C(=O)O

Assays:
α4β7 [1] = target: T1, α4β7 (Mus musculus, UniProt P26011+Q00651); assay: α4β7 Cell Adhesion Assay (Mouse), TK1 cells; format: cell-based; conditions: Table 3-B, Potency (α4β7); range classes; read-out: α4β7 cell(MU) IC50
T1 construct: host or cells: TK1 mouse T cells
Description: TK1 cells (ATCC # ATCC-CRL-2396) were cultured in RPMI 1640 with 2 mM L-glutamine adjusted to contain 1.5 g/L sodium bicarbonate, 4.5 g/L glucose, 10 mM HEPES, and 1.0 mM sodium pyruvate (ATCC#30-2001) and supplemented with 0.1 mM non-essential amino acids, (ATCC #30-2116) 0.05 mM 2-mercaptoethanol (Invitrogen #21985) and 10% serum (Fetal Bovine Serum, Invitrogen #16140-071), and Penicillin-Streptomycin (Invitrogen #15140-122) at 100 units of penicillin and 100 μg of streptomycin per ml. The cells were washed two times in DMEM medium (ATCC #30-2002) supplemented with 0.1% BSA, 10 mM HEPES pH 7 and 1 mM MnCl2. The cells were re-suspended in supplemented DMEM medium at a density of 4×10^6 cells/ml.
A Nunc MaxiSorp plate was coated with Recombinant human MAdCAM-1 Fc Chimera (R&D #6065-MC) at 200 ng per well in 100 μl per well in 1×PBS and incubated at 4° C. overnight. The solution was then removed by shaking, blocked with 250 ul per well PBS containing 1% BSA, and incubated at 37° C. for 1 hr. The solution was removed by shaking. DATK 32 (anti-mouse α4β7) and peptides were diluted by serial dilution in a final volume of 50 ul per well (2× concentration). To each well, 50 ul of cells (200,000 cells) are added and the plate is incubated at 37° C., 5% CO2 for 30-45 min to allow cell adhesion. The plate was manually washed three times with supplemented DMEM, 100 ul per wash. After the final wash, 100 ul/well of supplemented DMEM and […] of MTT reagent (ATTC cat#30-1010K) was added to each well. Wells were incubated at 37° C. with 5% CO2 for 2-3 hrs until purple precipitate was visible. 100 μl of Detergent Reagent (ATTC cat#30-1010K) was added to each well. The plate was then wrapped with Para film to prevent evaporation, and left overnight at room temperature in the dark. The plate was shaken for 5 min and the absorbance at 570 nm was measured. To calculate the dose response, the absorbance value of control wells not containing cells was subtracted from each test well.

α4β7 [2] = target: T2, α4β7 (Homo sapiens, UniProt P13612+P26010); assay: α4β7-MAdCAM Cell Adhesion Assay (RPMI 8866 human cells); format: cell-based; parameters: host or cells: RPMI 8866 human B lymphoblastoid cells; conditions: Table 3-B, Potency (α4β7); range classes; read-out: α4β7 cell (Hu) IC50
Summary of the method: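 Washed RPMI 8866 cells (200,000/well) in DMEM with 0.1% BSA, 10 mM HEPES pH 7, 1 mM MnCl2 adhered to rh MAdCAM-1/Fc-coated wells with serially diluted peptides, 30-45 min at 37 °C. After three washes, bound cells quantified by MTT, A570, cell-free background subtracted for dose response.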

α4β1 = target: T3, α4β1 (Homo sapiens, UniProt P05556+P13612, DEL729-798); assay: α4β1-VCAM Competition ELISA; format: binding; conditions: Table 3-B, Selectivity (α4β1); range classes; read-out: α4β1 ELISA IC50
T3 construct: purchased R&D Systems 5668-A4
Summary of the method: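 Recombinant α4β1 (60 nM final) competed with serially diluted peptides (top final 100 μM) for VCAM-1 Fc coated at 400 ng/well, in Tris pH 7.6 with 1 mM MnCl2 or MgCl2, for 2 h at 37 °C. Bound integrin was detected with anti-CD49d 9F10 plus HRP anti-mouse IgG, using TMB read at 450 nm.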

α4β7 [3] = target: T2, α4β7; assay: PBMC Memory T Cell Adhesion Assay, adhesion to MAdCAM-1; format: cell-based; conditions: Table 3-B; range classes; read-out: PBMC IC50
Description: Fresh CD4+/CD45RO+ memory T cells were isolated from human peripheral blood mononuclear cell (PBMC) donors by Aragen Bioscience Inc. (Morgan Hill, Calif.). The assay plate was prepared using IgG Fc capture antibody (donkey anti human) immobilized at 500 ng/well in 50 mM sodium bicarbonate buffer, pH 9.5, ON, 4C onto a Greiner Fluotrac plate (100 ul per well). The plate was rinsed two time with Blocking Buffer (25 mM Tris HCl, pH7.5, 150 mM NaCl, 1.5% BSA, 0.05% Tween), and blocked with Blocking Buffer for 2 hours at 37 C or 5 hours at RT using 200 ul per well. The Blocking Buffer was removed and either MAdCAM-1 or VCAM-1 at 400 ng/well in Blocking Buffer was added and the plate incubated overnight at 4C (100 ul per well). The plate was washed two times with Blocking Buffer, and rinsed once with 200 ul Binding Media (DMEM phenol red free, 10 mM HEPES, 1×Na pyruvate, 1× Glutamine, and supplemented with 1 mM MnCl2 prior to use). To prepare cells, approximately 25 million CD4+/CD45RO+ memory T cells were counted by trypan blue exclusion using a haemocytometer to determine viability and cell count. The cells were transferred to a 50 ml conical tube, and centrifuged at 1200 rpm for 10 minute. The media was aspirated and the cell pellet resuspended in 15 ml Binding Media. The cells were centrifuged again and resuspended in the appropriate amount of Binding Media to be used for assays (50 ul of cells per well at 2× the final density). To each well, and equal volume (50 ul) of test compound was added and the plate was incubated for 1.5 hours at 37 C, 5% CO2. Each well was rinsed 3× with 150 ul per well of Binding Media. […] The plate was incubated at 37 C, 5% CO2, for 45 minutes. The plate was protected from light by using black adhesive seals. Fluorescence intensity was measured using a Molecular Devices Gemini EM Fluorescent Plate Reader (Ex 485/Em530, Bottom Read, Reading Sensitivity=20). IC50 curves are generated using Graph Pad Prism and the curves analyzed using analyzed using a non-linear regression (four parameters) algorithm. The log (concentration) versus RFU (Ex485/Em530) was plotted to determine IC50 values.

[4] = tested on: cell types in human whole blood; assay: FACS binding specificity in human whole blood; format: cell-based; conditions: 1 nM, 1 mM MnCl2
Description: To further evaluate the selectivity of Peptide X in human blood, the fluorescent dye Alexa 647 was conjugated to Peptide X at the same position used for attaching biotin. […] Heparinized human whole blood was supplemented with 1 mM MnCl2, and stained with the Peptide X-Alexa 647 conjugate or biotinylated vedolizumab for 1 hour at room temperature. The samples were fixed (red blood cells lysed) and washed. The vedolizumab samples were stained separately with streptavidin Alexa 647 for stain for 30 minutes at room temperature. FACS analysis was used to assess binding of the peptide or vedolizumab to a broad panel of cell types including NK cells, basophils, monocytes, eosinophils, neutrophils, CD4 naïve T cells, CD4 memory T cells, CD8 naïve T cells, CD8 memory T cells, and B cells. […] The binding specificity for vedolizmab shown in Table 7 is also very similar to that reported in the literature (Soler et al, JPET 330:864-875, 2009).

T2 sequence (P13612 34-1032): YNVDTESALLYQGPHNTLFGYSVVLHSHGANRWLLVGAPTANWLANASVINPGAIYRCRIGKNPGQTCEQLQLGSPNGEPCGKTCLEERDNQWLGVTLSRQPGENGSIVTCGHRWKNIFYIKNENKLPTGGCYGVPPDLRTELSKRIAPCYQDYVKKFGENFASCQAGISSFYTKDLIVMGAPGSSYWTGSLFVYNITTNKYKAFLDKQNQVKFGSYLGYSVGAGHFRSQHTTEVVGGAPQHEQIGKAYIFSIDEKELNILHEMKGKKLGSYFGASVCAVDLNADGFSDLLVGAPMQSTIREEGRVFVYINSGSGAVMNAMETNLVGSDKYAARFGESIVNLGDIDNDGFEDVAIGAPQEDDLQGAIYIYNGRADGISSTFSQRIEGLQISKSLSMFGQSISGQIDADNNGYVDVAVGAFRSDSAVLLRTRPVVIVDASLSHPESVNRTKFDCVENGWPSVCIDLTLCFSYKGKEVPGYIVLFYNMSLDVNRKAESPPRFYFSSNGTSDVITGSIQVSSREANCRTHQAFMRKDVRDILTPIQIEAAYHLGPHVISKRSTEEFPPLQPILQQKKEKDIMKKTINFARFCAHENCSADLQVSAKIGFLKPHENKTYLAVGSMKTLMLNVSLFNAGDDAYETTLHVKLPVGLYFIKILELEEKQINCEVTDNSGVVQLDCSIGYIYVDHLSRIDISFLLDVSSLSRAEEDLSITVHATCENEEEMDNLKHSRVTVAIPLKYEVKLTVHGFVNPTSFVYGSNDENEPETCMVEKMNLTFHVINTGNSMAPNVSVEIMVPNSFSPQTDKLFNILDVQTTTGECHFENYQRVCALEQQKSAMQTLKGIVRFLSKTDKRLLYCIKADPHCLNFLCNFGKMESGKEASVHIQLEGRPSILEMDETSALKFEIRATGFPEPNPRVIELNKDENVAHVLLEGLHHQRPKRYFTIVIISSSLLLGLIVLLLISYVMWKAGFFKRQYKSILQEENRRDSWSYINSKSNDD
T2 sequence (P26010 20-798): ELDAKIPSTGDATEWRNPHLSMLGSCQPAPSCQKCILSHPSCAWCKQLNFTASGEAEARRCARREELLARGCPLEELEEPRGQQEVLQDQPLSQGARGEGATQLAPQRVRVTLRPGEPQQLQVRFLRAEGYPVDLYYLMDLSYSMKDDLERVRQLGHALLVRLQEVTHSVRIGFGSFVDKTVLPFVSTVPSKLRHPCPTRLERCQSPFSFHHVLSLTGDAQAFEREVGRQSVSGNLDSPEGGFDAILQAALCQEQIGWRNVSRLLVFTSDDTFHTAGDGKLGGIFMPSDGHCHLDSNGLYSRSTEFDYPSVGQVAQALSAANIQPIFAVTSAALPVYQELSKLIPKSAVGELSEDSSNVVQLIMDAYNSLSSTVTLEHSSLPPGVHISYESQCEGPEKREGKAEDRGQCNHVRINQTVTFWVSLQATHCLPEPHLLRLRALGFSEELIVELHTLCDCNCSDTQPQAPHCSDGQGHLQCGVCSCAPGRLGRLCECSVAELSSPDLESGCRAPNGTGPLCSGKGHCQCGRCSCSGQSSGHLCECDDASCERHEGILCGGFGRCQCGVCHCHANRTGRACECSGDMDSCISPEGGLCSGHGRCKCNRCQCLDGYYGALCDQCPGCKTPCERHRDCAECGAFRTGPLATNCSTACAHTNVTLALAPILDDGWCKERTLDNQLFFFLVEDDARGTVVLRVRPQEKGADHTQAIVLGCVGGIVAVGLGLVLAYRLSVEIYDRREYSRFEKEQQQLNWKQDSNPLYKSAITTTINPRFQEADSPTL
T3 sequence (P13612 34-977 limits assumed, stated change not applied): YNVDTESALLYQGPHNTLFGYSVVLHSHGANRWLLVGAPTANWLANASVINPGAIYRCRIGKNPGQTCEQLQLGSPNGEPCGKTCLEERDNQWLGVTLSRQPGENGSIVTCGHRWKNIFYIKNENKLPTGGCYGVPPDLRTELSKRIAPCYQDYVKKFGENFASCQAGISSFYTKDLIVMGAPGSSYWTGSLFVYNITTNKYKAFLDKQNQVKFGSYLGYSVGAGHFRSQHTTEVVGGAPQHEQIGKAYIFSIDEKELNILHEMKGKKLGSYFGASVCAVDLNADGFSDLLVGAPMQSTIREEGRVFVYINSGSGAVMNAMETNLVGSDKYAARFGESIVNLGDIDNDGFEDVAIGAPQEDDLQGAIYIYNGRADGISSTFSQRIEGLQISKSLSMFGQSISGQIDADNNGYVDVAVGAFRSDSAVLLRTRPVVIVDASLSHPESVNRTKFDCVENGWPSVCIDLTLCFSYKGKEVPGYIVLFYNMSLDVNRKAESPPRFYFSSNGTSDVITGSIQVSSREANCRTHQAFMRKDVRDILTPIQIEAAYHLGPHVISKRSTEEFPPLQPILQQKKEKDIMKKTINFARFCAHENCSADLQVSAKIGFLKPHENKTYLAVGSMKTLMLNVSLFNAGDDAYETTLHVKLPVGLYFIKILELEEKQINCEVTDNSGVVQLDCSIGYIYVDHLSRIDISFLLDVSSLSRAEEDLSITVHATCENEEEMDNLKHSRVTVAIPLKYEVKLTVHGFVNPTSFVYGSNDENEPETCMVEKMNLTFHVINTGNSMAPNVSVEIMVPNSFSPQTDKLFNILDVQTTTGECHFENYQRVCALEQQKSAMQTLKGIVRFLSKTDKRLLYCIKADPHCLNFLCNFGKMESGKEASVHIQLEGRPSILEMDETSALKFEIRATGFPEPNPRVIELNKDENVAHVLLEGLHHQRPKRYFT
T3 sequence (P05556 21-728 limits assumed, stated change not applied): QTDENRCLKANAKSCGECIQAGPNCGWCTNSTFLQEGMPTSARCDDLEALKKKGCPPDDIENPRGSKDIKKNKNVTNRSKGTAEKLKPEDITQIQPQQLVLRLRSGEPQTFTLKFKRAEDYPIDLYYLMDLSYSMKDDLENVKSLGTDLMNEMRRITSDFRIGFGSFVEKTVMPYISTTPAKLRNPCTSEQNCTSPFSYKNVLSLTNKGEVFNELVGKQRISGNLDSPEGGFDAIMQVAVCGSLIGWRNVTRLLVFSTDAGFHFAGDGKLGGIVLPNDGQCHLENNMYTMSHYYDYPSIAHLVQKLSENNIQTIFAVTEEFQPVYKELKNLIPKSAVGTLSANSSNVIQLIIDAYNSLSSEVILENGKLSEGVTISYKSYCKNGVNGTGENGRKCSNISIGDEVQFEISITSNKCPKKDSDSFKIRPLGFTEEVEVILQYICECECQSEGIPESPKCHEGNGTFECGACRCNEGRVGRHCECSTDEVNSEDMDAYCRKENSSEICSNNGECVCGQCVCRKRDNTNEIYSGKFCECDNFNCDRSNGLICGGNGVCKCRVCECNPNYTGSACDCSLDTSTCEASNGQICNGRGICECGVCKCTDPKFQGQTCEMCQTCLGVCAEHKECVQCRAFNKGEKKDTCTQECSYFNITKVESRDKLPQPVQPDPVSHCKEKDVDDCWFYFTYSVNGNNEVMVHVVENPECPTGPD

Row | Compound | IC50 (α4β7 [1]) [nM] | IC50 (α4β7 [2]) [nM] | IC50 (α4β1) [nM] | further results
1 | COC(=O)CC[C@H](NC(=O)[C@H](Cc1c[nH]c2ccccc12)NC(=O)[C@H]1NC(=O)[C@H](CC(C)C)NC(=O)[C@H]([C@@H](C)O)NC(=O)[C@H](CC(=O)O)NC(=O)[C@H](CO)NC(=O)[C@H](CCCNC(=N)N)N(C)C(=O)[C@@H](NC(C)=O)C(C)(C)SSC1(C)C)C(=O)N[C@H](CCCCNC(=O)COCC(=O)NCCCC[C@@H](NC(=O)[C@H](CCC(=O)OC)NC(=O)[C@H](Cc1c[nH]c2ccccc12)NC(=O)[C@H]1NC(=O)[C@H](CC(C)C)NC(=O)[C@H]([C@@H](C)O)NC(=O)[C@H](CC(=O)O)NC(=O)[C@H](CO)NC(=O)[C@H](CCCNC(=N)N)N(C)C(=O)[C@@H](NC(C)=O)C(C)(C)SSC1(C)C)C(N)=O)C(N)=O [compound 86] (I: Ac-[Pen][NMeR]SDTL[Pen]WE(OMe)[dK]-NH2 / II: Ac-[Pen][NMeR]SDTL[Pen]WE(OMe)[dK]-NH2; disulfide I:1-I:7, II:1-II:7; linker I:10-II:10 via Diglycolyl) | < 10 | < 10 |  | 
2 | CC(=O)N[C@@H]1C(=O)N(C)[C@@H](CCCNC(=N)N)C(=O)N[C@@H](CO)C(=O)N[C@@H](CC(=O)O)C(=O)N[C@@H]([C@@H](C)O)C(=O)N[C@@H](CC(C)C)C(=O)N[C@H](C(=O)N[C@@H](Cc2c[nH]c3ccccc23)C(=O)N[C@@H](CCC(=O)O)CC(=O)O)C(C)(C)SSC1(C)C [compound 146] (Ac-[Pen][NMeR]SDTL[Pen]W[β3hE]-OH; disulfide 1-7) | 50 to 100 | 50 to 100 | 1000 to 10000 | 
3 | CC(=O)N[C@@H]1C(=O)N(C)[C@@H](CCCNC(=N)N)C(=O)N[C@@H](CO)C(=O)N[C@@H](CC(=O)O)C(=O)N[C@@H]([C@@H](C)O)C(=O)N[C@@H](CC(C)C)C(=O)N[C@H](C(=O)N2Cc3ccccc3C[C@H]2C(=O)N[C@@H](CCC(=O)O)CC(N)=O)C(C)(C)SSC1(C)C [compound 154] (Ac-[Pen][NMeR]SDTL[Pen][Tic][β3hE]-NH2; disulfide 1-7) | 1000 to 10000 | 100 to 500 | 1000 to 10000 | 
4 | CC(=O)N[C@@H]1C(=O)N(C)[C@@H](CCCNC(=N)N)C(=O)N[C@@H](CO)C(=O)N[C@@H](CC(=O)O)C(=O)N[C@@H]([C@@H](C)O)C(=O)N[C@@H](CC(C)C)C(=O)N[C@H](C(=O)N[C@@H](Cc2ccc3ccccc3c2)C(=O)N[C@@H](CCC(=O)O)CC(N)=O)C(C)(C)SSC1(C)C [compound 155] (Ac-[Pen][NMeR]SDTL[Pen][2Nal][β3hE]-NH2; disulfide 1-7) | 25 to 50 | 25 to 50 | 1000 to 10000 | 
5 | CC(=O)N[C@@H]1C(=O)N(C)[C@@H](CCCNC(=N)N)C(=O)N[C@@H](CO)C(=O)N[C@@H](CC(=O)O)C(=O)N[C@@H]([C@@H](C)O)C(=O)N[C@@H](CC(C)C)C(=O)N[C@H](C(=O)N[C@@H](Cc2ccc(C(C)(C)C)cc2)C(=O)N[C@@H](CCC(=O)O)CC(=O)N[C@H](CCCCNC(=O)CN(CC(=O)NCCCC[C@@H](NC(=O)C[C@H](CCC(=O)O)NC(=O)[C@H](Cc2ccc(C(C)(C)C)cc2)NC(=O)[C@H]2NC(=O)[C@H](CC(C)C)NC(=O)[C@H]([C@@H](C)O)NC(=O)[C@H](CC(=O)O)NC(=O)[C@H](CO)NC(=O)[C@H](CCCNC(=N)N)N(C)C(=O)[C@@H](NC(C)=O)C(C)(C)SSC2(C)C)C(N)=O)C(=O)CCN)C(N)=O)C(C)(C)SSC1(C)C [compound 166] |  | < 10 |  | IC50 (α4β7 [3]): < 10 nM
6 | CC(=O)N[C@@H]1C(=O)N(C)[C@@H](CCCNC(=N)N)C(=O)N[C@@H](CO)C(=O)N[C@@H](CC(=O)O)C(=O)N[C@@H]([C@@H](C)O)C(=O)N[C@@H](CC(C)C)C(=O)N[C@H](C(=O)N[C@@H](Cc2ccc(C(C)(C)C)cc2)C(=O)N[C@@H](CCC(=O)O)CC(=O)N[C@H](CCCCNC(=O)COCC(=O)NCCCC[C@@H](NC(=O)C[C@H](CCC(=O)O)NC(=O)[C@H](Cc2ccc(C(C)(C)C)cc2)NC(=O)[C@H]2NC(=O)[C@H](CC(C)C)NC(=O)[C@H]([C@@H](C)O)NC(=O)[C@H](CC(=O)O)NC(=O)[C@H](CO)NC(=O)[C@H](CCCNC(=N)N)N(C)C(=O)[C@@H](NC(C)=O)C(C)(C)SSC2(C)C)C(=O)O)C(=O)O)C(C)(C)SSC1(C)C [compound 168] (I: Ac-[Pen][NMeR]SDTL[Pen][Phe(4-tBu)][β3hE][dK]-OH / II: Ac-[Pen][NMeR]SDTL[Pen][Phe(4-tBu)][β3hE][dK]-OH; disulfide I:1-I:7, II:1-II:7; linker I:10-II:10 via Diglycolyl) |  | < 10 |  | IC50 (α4β7 [3]): < 10 nM
7 | vedolizumab [reference compound] |  |  |  | Percent positive staining, Basophils [4]: 86%; Percent positive staining, CD4 memory T cells [4]: 22%; Percent positive staining, CD4 naïve T cells [4]: 55%; Percent positive staining, CD8 memory T cells [4]: 36%; Percent positive staining, CD8 naïve T cells [4]: 53%; Percent positive staining, CD19+ B cells [4]: 85%; Percent positive staining, Eosinophils [4]: 91%; Percent positive staining, Monocytes [4]: 7%; Percent positive staining, NK cells CD16+ 56+ [4]: 42%; Percent positive staining, Neutrophils [4]: 0.45%
